Results as given in patent US20210382058A1, “PATIENT SELECTION FOR TREATMENT OF MYC POSITIVE CANCERS WITH INDENOISOQUINOLINES” (Purdue Research Foundation, priority 2020, published 2021).
Where two headings read alike, the source gives them in different places.

Legend:
[1] = system: MYC protein expression in MCF-7 breast cancer cells; assay: Western blotting of MYC protein level in MCF-7 cells; type: cell-based, human; settings: Homo sapiens, MCF7; western blotting, MCF-7 cells, 0.5, 1, 2, and 4 μM, 24 hours; read-out: MYC Inhibition
Outline: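 Immunoblotting with ECL detection quantified MYC, with GAPDH (1:2000) as reference and anti-MYC at 1:1000.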

human topoisomerase I = target: T1, human topoisomerase I (Homo sapiens, UniProt P11387); settings: relative topoisomerase I inhibition levels, previously determined, six levels (0 - 5, +++++ = 5); cited from earlier work
T1 sequence (P11387 1-765): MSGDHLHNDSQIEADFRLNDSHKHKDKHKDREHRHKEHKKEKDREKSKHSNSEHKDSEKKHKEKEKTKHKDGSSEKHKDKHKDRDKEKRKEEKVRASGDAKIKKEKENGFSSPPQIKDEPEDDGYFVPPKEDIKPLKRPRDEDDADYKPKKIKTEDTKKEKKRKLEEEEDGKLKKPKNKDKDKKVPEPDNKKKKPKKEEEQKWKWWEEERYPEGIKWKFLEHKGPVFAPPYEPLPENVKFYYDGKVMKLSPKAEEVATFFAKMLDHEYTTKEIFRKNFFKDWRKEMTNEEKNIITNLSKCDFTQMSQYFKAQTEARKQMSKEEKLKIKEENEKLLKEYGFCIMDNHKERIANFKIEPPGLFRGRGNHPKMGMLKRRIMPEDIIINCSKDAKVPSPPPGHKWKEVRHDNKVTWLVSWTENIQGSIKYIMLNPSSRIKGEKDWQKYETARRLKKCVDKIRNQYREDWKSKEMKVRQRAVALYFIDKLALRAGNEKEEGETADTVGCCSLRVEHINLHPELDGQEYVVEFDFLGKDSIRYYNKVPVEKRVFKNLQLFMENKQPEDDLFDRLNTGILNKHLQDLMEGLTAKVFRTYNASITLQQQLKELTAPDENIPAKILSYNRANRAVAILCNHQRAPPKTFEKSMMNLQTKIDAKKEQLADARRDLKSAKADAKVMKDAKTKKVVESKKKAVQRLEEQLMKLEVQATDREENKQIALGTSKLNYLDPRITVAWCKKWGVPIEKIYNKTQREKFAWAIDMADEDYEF

NCI-60 cancer cell lines = assay: NCI-60 cancer cell line drug screen (GI50, MGM); type: cell-based, human; settings: Homo sapiens; for GI50: read-out: Antiproliferative Activities [GI50 (μM)]
Procedure: Cancer cells were incubated with the test compounds at five concentrations ranging from 100 μM to 10 nM for 48 h. […] The approximate average of GI50 values across the entire panel of NCI-60 cancer cell lines for each compound was recorded as the MGM value.

In the case of CNCCCn1c2c(c3ccc(Cl)cc3c1=O)C(=O)c1cc(OC)cnc1-2 [Compound 3], the minimal effective concentration [1] is given as 0.5 to 1 µM, the “Top1 Inhibiton” value (human topoisomerase I) is given as “++ (medium inhibition, ++, MYC expression inhibited at 2.0 μM, or no clear dose-dependent MYC inhibition)” and the GI50 (NCI-60 cancer cell lines; 786-0, Renal Cancer, 786-0) is given as 0.32 µM. The GI50 (NCI-60 cancer cell lines; A498, Renal Cancer, A498) was 0.53 µM, the GI50 (NCI-60 cancer cell lines; A549, Non-Small Cell Lung Cancer, A549/ATCC) was 0.45 µM and the GI50 (NCI-60 cancer cell lines; ACHN, Renal Cancer, ACHN) was 0.22 µM. It also gave a GI50 (NCI-60 cancer cell lines; BT-549, Breast Cancer, BT-549) of 0.65 µM, a GI50 (NCI-60 cancer cell lines; CAKI-1, Renal Cancer, CAKI-1) of 0.06 µM and a GI50 (NCI-60 cancer cell lines; CCRF-CEM, Leukemia, CCRF-CEM) of 0.06 µM. It also gave a GI50 (NCI-60 cancer cell lines; COLO 205, Colon Cancer, COLO 205) of 0.5 µM, a GI50 (NCI-60 cancer cell lines; DU-145, Prostate Cancer, DU-145) of 0.33 µM and a GI50 (NCI-60 cancer cell lines; EKVX, Non-Small Cell Lung Cancer, EKVX) of 1.2 µM. The GI50 (NCI-60 cancer cell lines; HCC 2998, Colon Cancer, HCC-2998) was 1.41 µM, the GI50 (NCI-60 cancer cell lines; HCT-15, Colon Cancer, HCT-15) was 1.11 µM and the GI50 (NCI-60 cancer cell lines; HCT-116, Colon Cancer, HCT-116) was 0.55 µM. It also gave a GI50 (NCI-60 cancer cell lines; HL-60, Leukemia, HL-60(TB)) of 0.6 µM, a GI50 (NCI-60 cancer cell lines; HOP-62, Non-Small Cell Lung Cancer, HOP-62) of 0.22 µM and a GI50 (NCI-60 cancer cell lines; HOP-92, Non-Small Cell Lung Cancer, HOP-92) of 1.19 µM. It also gave a GI50 (NCI-60 cancer cell lines; HT-29, Colon Cancer, HT29) of 1.08 µM, a GI50 (NCI-60 cancer cell lines; Hs-578T, Breast Cancer, HS 578T) of 1.84 µM and a GI50 (NCI-60 cancer cell lines; IGROV-1, Ovarian Cancer, IGROV1) of 1.14 µM. The GI50 (NCI-60 cancer cell lines; K562, Leukemia, K-562) was 1.14 µM, the GI50 (NCI-60 cancer cell lines; KM12, Colon Cancer, KM12) was 1.1 µM and the GI50 (NCI-60 cancer cell lines; LOX IMVI, Melanoma, LOX IMVI) was 0.16 µM. It also gave a GI50 (NCI-60 cancer cell lines; Leukemia, SR) of 0.14 µM, a GI50 (NCI-60 cancer cell lines; MCF7, Breast Cancer, MCF7) of 0.05 µM and a GI50 (NCI-60 cancer cell lines; MDA-MB-231, Breast Cancer, MDA-MB-231/ATCC) of 1.62 µM. The GI50 (NCI-60 cancer cell lines; MDA-MB-435, Melanoma, MDA-MB-435) was 1.07 µM, the GI50 (NCI-60 cancer cell lines; MDA-MB-468, Breast Cancer, MDA-MB-468) was 1.28 µM and the GI50 (NCI-60 cancer cell lines; MOLT-4, Leukemia, MOLT-4) was 0.04 µM. It also gave a GI50 (NCI-60 cancer cell lines; Malme-3M, Melanoma, MALME-3M) of 1.48 µM, a GI50 (NCI-60 cancer cell lines; Melanoma, M14) of 0.57 µM and a GI50 (NCI-60 cancer cell lines; NCI-H23, Non-Small Cell Lung Cancer, NCI-H23) of 0.92 µM. For the same compound, the GI50 (NCI-60 cancer cell lines; NCI-H226, Non-Small Cell Lung Cancer, NCI-H226) was 1.35 µM, the GI50 (NCI-60 cancer cell lines; NCI-H322M, Non-Small Cell Lung Cancer, NCI-H322M) was 1.28 µM and the GI50 (NCI-60 cancer cell lines; NCI-H460, Non-Small Cell Lung Cancer, NCI-H460) was 0.05 µM. For the same compound, the GI50 (NCI-60 cancer cell lines; NCI-H522, Non-Small Cell Lung Cancer, NCI-H522) was 0.37 µM, the GI50 (NCI-60 cancer cell lines; OVCAR-3, Ovarian Cancer, OVCAR-3) was 1.41 µM and the GI50 (NCI-60 cancer cell lines; OVCAR-4, Ovarian Cancer, OVCAR-4) was 1.27 µM. It also gave a GI50 (NCI-60 cancer cell lines; OVCAR-5, Ovarian Cancer, OVCAR-5) of 1.69 µM, a GI50 (NCI-60 cancer cell lines; OVCAR-8, Ovarian Cancer, OVCAR-8) of 1.18 µM and a GI50 (NCI-60 cancer cell lines; Ovarian Cancer, NCl/ADR-RES) of 0.54 µM. It also gave a GI50 (NCI-60 cancer cell lines; Prostate Cancer, PC-3) of 1.02 µM, a GI50 (NCI-60 cancer cell lines; RPMI-8226, Leukemia, RPMI-8226) of 1.47 µM and a GI50 (NCI-60 cancer cell lines; RXF 393, Renal Cancer, RXF 393) of 1.3 µM. For the same compound, the GI50 (NCI-60 cancer cell lines; Renal Cancer, U0-31) was 1.08 µM, the GI50 (NCI-60 cancer cell lines; SF-268, CNS Cancer, SF-268) was 0.4 µM and the GI50 (NCI-60 cancer cell lines; SF-295, CNS Cancer, SF-295) was 0.13 µM. It also gave a GI50 (NCI-60 cancer cell lines; SF-539, CNS Cancer, SF-539) of 0.73 µM, a GI50 (NCI-60 cancer cell lines; SK-MEL-2, Melanoma, SK-MEL-2) of 13.2 µM and a GI50 (NCI-60 cancer cell lines; SK-MEL-5, Melanoma, SK-MEL-5) of 1.12 µM. It also gave a GI50 (NCI-60 cancer cell lines; SK-MEL-28, Melanoma, SK-MEL-28) of 1.62 µM, a GI50 (NCI-60 cancer cell lines; SK-OV-3, Ovarian Cancer, SK-OV-3) of 0.66 µM and a GI50 (NCI-60 cancer cell lines; SN12C, Renal Cancer, SN12C) of 1.18 µM. The GI50 (NCI-60 cancer cell lines; SNB-19, CNS Cancer, SNB-19) was 0.61 µM, the GI50 (NCI-60 cancer cell lines; SNB-75, CNS Cancer, SNB-75) was 0.26 µM and the GI50 (NCI-60 cancer cell lines; SW-620, Colon Cancer, SW-620) was 0.08 µM. It also gave a GI50 (NCI-60 cancer cell lines; T47D, Breast Cancer, T-47D) of 1.12 µM, a GI50 (NCI-60 cancer cell lines; U-251, CNS Cancer, U251) of 0.3 µM and a GI50 (NCI-60 cancer cell lines; UACC-62, Melanoma, UACC-62) of 0.57 µM. It also gave a GI50 (NCI-60 cancer cell lines; UACC-257, Melanoma, UACC-257) of 2.24 µM and a mean GI50 across NCI-60 panel (MGM) (NCI-60 cancer cell lines; average of GI50 values across the entire panel of NCI-60 cancer cell lines) of 600 nM.
